Our source for the IC50 values is patent publication US12643881B2, “Bicyclic amine CDK12 inhibitors” (Incyte Corporation, priority 2021, dated 2026).

The target of this assay is T1, CDK12 complexed with Cyclin K (Homo sapiens, UniProt Q9NYV4).
T1 construct: GST (N)
T1 sequence (Q9NYV4 whole entry): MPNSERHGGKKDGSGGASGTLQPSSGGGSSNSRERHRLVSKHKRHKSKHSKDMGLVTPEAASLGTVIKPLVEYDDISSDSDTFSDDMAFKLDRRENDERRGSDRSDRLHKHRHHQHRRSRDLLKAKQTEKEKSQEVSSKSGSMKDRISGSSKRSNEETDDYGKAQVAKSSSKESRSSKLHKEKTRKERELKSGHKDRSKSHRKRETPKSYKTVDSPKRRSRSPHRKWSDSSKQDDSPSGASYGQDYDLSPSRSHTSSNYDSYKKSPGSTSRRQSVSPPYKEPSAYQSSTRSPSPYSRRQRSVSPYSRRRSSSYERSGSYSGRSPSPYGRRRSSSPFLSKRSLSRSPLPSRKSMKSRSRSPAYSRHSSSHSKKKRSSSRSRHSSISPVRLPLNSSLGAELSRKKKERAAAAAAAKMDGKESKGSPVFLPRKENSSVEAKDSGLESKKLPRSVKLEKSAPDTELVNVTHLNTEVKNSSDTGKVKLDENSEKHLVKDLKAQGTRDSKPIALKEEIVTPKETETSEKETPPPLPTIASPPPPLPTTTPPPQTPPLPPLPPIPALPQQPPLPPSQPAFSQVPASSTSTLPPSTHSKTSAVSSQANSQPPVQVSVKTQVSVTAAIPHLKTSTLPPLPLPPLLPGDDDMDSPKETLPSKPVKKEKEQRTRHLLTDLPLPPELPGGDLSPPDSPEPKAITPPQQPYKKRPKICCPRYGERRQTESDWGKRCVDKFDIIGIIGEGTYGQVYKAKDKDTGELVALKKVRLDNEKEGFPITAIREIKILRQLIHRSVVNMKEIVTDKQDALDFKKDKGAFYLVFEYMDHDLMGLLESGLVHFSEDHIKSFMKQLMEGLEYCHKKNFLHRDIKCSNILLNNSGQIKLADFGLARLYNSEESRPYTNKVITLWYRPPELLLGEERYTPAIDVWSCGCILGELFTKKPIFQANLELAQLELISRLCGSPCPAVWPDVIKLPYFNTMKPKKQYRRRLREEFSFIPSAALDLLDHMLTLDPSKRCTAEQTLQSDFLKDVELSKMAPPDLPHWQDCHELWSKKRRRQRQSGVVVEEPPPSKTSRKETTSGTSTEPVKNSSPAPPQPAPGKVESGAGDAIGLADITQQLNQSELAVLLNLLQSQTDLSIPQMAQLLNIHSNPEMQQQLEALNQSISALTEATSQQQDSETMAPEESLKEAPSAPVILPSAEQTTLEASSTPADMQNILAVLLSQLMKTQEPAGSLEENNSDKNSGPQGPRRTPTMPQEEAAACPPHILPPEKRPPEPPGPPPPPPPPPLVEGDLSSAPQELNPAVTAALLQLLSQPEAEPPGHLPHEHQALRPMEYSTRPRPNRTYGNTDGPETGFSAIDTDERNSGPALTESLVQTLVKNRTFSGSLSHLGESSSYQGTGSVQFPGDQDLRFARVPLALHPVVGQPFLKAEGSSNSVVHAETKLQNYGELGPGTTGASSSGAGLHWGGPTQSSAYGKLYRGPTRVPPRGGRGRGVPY
T1 sequence (O75909 whole entry partner): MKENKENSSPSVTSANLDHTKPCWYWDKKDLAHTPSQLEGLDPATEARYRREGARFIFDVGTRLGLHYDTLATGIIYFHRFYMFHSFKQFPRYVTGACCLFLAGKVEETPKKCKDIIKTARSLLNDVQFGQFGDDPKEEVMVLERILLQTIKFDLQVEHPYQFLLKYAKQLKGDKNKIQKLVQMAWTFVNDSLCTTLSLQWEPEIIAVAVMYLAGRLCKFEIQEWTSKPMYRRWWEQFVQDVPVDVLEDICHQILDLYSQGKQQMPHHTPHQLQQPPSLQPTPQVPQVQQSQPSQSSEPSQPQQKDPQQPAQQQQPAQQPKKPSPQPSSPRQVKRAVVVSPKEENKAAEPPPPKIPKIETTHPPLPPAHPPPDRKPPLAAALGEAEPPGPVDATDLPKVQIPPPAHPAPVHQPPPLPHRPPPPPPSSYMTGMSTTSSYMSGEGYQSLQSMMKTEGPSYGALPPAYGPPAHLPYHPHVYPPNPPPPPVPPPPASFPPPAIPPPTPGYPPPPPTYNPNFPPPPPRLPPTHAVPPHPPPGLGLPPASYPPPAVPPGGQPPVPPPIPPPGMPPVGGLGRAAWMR
As to the kind of experiment: Alternative CDK Enzymatic Assays (HTRF, pre-incubation with compounds and 1 mM ATP), Example A2. The assay is classed as biochemical. As to conditions: enzyme pre-incubated with compounds and 1 mM ATP for 60 minutes; reaction 120 minutes at 25° C. The text has this: Example A2. Alternative CDK Enzymatic Assays
The following activity of the CDK enzymes in complex with their respective cyclins we assayed: CDK1 complexed with Cyclin B1; CDK2 complexed with Cyclin E1; CDK4 complexed with Cyclin D1; CDK6 complexed with Cyclin D1; CDK6 complexed with Cyclin D3; CDK9 complexed with Cyclin T1; CDK7 complexed with Cyclin H/MAT1; CDK2 complexed with Cyclin A2; CDK5 complexed with p35; CDK12 complexed with Cyclin K; CDK13 complexed with Cyclin K. These in vitro enzyme activity are assayed using homogeneous time-resolved energy transfer (HTRF), which measures phosphorylation of a peptide substrate. The LANCER Ultra kinase assay (PerkinElmer) uses a ULight™-labeled EIF4E-binding protein 1 (THR37/46) peptide (DYSTTPGGTLFSTTPGTRI (SEQ ID NO: 1)) substrate and a Europium-labeled anti-phospho-4E-BP1 antibody (CDK2, CDK1, CDK4, CDK6, CDK9, CDK12, CDK13) or ULight™-labeled Myelin Basic Protein peptide (VTPRTPPP (SEQ ID NO: 2)) substrate and a Europium-labeled anti-phospho-MBP antibody (CDK7). Each CDK enzyme activity assays utilized human CDK co-expressed as N-terminal GST-tagged protein with its full length cyclin partner using a baculovirus expression system.
Enzyme was pre-incubated with compounds and 1 mM ATP for 60 minutes (CDK 1, 2, 4, 6, 9, 7, 12, 13) prior to the addition of ATP and Ulight-peptide (1 mM and 50 nM final, respectively), in assay buffer containing 50 mM HEPES pH 7.5, 1 mM EGTA, 10 mM MgCl2, 2 mM DTT, 0.05 mg/mL BSA, and 0.01% Tween 20. The reaction was then incubated for 120 minutes at 25° C. incubator. The reactions were stopped by the addition of EDTA and Europium labeled antibody, for a final concentration of 15 mM and 0.5-1.5 nM, respectively. HTRF signals were read after 15-120 minutes. A ratio of fluorescence transferred to the labeled substrate (665 nm) relative to fluorescence of the Europium donor (620 nm) represents the extent of phosphorylation. Ratios for treated wells were normalized to DMSO only (100% activity) and no enzyme (0% activity) controls. Normalized data was analyzed using a three or four parameter dose response curve to determine IC50 for each compound and are shown in Table B. Control reference inhibitors were included on each plate.
In general terms: In TR-FRET formats the signal depends on donor and acceptor labels being close together.
As to `COC/C=C/C(=O)Nc1cc2nc(N3C[C@H](F)C[C@@H](Nc4ncc(C(F)(F)F)cn4)C3)n(C)c2cc1C` [Example 121, (E)-N-(2-((3R,5R)-3-Fluoro-5-((5-(trifluoromethyl)pyrimidin-2-yl)amino)piperidin-1-yl)-1,6-dimethyl-1H-benzo[d]imidazol-5-yl)-4-methoxybut-2-enamide], the IC50 was in the range of 50 to 500 nM.

On to `C=CC(=O)Nc1ccc2c(c1)nc(N1C[C@H](O)C[C@@H](Nc3ncc(C#N)cn3)C1)n2C` [Example 122, N-(2-((3R,5R)-3-((5-Cyanopyrimidin-2-yl)amino)-5-hydroxypiperidin-1-yl)-1-methyl-1H-benzo[d]imidazol-5-yl)acrylamide], for which the IC50 is less than 50 nM. Take `C=CC(=O)Nc1ccc2c(c1)nc(N1CCC[C@@H](Nc3ncc(C(F)(F)F)cn3)C1)n2C` [Example 123, (R)—N-(1-Methyl-2-(3-((5-(trifluoromethyl)pyrimidin-2-yl)amino)piperidin-1-yl)-1H-benzo[d]imidazol-5-yl)acrylamide]: the IC50 is less than 50 nM. Then `C=CC(=O)Nc1ccc2c(c1)nc(N1C[C@H](Nc3ncc(C(F)(F)F)cn3)CC(F)(F)C1)n2C` [Example 124, (R)—N-(2-(3,3-Difluoro-5-((5-(trifluoromethyl)pyrimidin-2-yl)amino)piperidin-1-yl)-1-methyl-1H-benzo[d]imidazol-5-yl)acrylamide], with less than 50 nM; and `C=CC(=O)Nc1ccc2c(c1)nc(N1CC[C@@H](F)[C@@H](Nc3ncc(C#N)cn3)C1)n2C` [Example 125, N-(2-((3S,4R)-3-((5-Cyanopyrimidin-2-yl)amino)-4-fluoropiperidin-1-yl)-1-methyl-1H-benzo[d]imidazol-5-yl)acrylamide], with less than 50 nM; and `C=CC(=O)Nc1ccc2c(c1)nc(N1CC[C@H](F)[C@@H](Nc3ncc(C#N)cn3)C1)n2C` [Example 126, N-(2-((3S,4S)-3-((5-Cyanopyrimidin-2-yl)amino)-4-fluoropiperidin-1-yl)-1-methyl-1H-benzo[d]imidazol-5-yl)acrylamide], with less than 50 nM.

As to `C=CC(=O)Nc1ccc2c(c1)nc(N1CCC(F)(F)[C@@H](Nc3ncc(C#N)cn3)C1)n2C` [Example 127, (S)—N-(2-(3-((5-Cyanopyrimidin-2-yl)amino)-4,4-difluoropiperidin-1-yl)-1-methyl-1H-benzo[d]imidazol-5-yl)acrylamide], the IC50 is less than 50 nM. Regarding `C=CC(=O)N1CCN(c2ccc3c(c2)nc(N2CCC[C@@H](Nc4ncc(C(F)(F)F)cn4)C2)n3C)CC1` [Example 128, (R)-1-(4-(1-Methyl-2-(3-((5-(trifluoromethyl)pyrimidin-2-yl)amino)piperidin-1-yl)-1H-benzo[d]imidazol-5-yl)piperazin-1-yl)prop-2-en-1-one], the IC50 fell in the range of 50 to 500 nM.

Take `C=CC(=O)Nc1ccc2c(c1)nc(N1CCC[C@@H](Nc3ncc(C#N)s3)C1)n2C` [Example 129, (R)—N-(2-(3-((5-Cyanothiazol-2-yl)amino)piperidin-1-yl)-1-methyl-1H-benzo[d]imidazol-5-yl)acrylamide]: the IC50 is less than 50 nM. As for `C=CC(=O)Nc1ccc2c(c1)nc(N1CCC[C@@H](Nc3ncc(C(F)(F)F)s3)C1)n2C` [Example 130, (R)—N-(1-Methyl-2-(3-((5-(trifluoromethyl)thiazol-2-yl)amino)piperidin-1-yl)-1H-benzo[d]imidazol-5-yl)acrylamide], the IC50 was less than 50 nM. Then `C=CC(=O)Nc1cc2nc(N3C[C@H](F)C[C@@H](Nc4ncc(C(F)(F)F)cn4)C3)n(C)c2cc1CC` [Example 131, N-(6-Ethyl-2-((3R,5R)-3-fluoro-5-((5-(trifluoromethyl)pyrimidin-2-yl)amino)piperidin-1-yl)-1-methyl-1H-benzo[d]imidazol-5-yl)acrylamide], with 50 to 500 nM; and `C=CC(=O)Nc1cc2nc(N3C[C@H](F)C[C@@H](Nc4ncc(C(F)(F)F)cn4)C3)n(C)c2cc1F` [Example 132, N-(6-Fluoro-2-((3R,5R)-3-fluoro-5-((5-(trifluoromethyl)pyrimidin-2-yl)amino)piperidin-1-yl)-1-methyl-1H-benzo[d]imidazol-5-yl)acrylamide], with less than 50 nM; and `C=CC(=O)Nc1cc2nc(N3C[C@H](F)C[C@@H](Nc4ncc(C(F)(F)F)cn4)C3)n(C)c2cc1COC` [Example 133, N-(2-((3R,5R)-3-Fluoro-5-((5-(trifluoromethyl)pyrimidin-2-yl)amino)piperidin-1-yl)-6-(methoxymethyl)-1-methyl-1H-benzo[d]imidazol-5-yl)acrylamide], with less than 50 nM. Regarding `C=CC(=O)Nc1cc2nc(N3C[C@H](F)C[C@@H](Nc4ncc(C(F)(F)F)cn4)C3)n(C)c2cc1Cl` [Example 134, N-(6-Chloro-2-((3R,5R)-3-fluoro-5-((5-(trifluoromethyl)pyrimidin-2-yl)amino)piperidin-1-yl)-1-methyl-1H-benzo[d]imidazol-5-yl)acrylamide], the IC50 was less than 50 nM. Turning to `[2H]C([2H])([2H])c1cc2c(cc1NC(=O)C=C)nc(N1C[C@H](F)C[C@@H](Nc3ncc(C(F)(F)F)cn3)C1)n2C` [Example 135, N-(2-((3R,5R)-3-Fluoro-5-((5-(trifluoromethyl)pyrimidin-2-yl)amino)piperidin-1-yl)-1-methyl-6-(methyl-d3)-1H-benzo[d]imidazol-5-yl)acrylamide], the IC50 is less than 50 nM. For `C=CC(=O)Nc1cc2nc(N3C[C@H](F)C[C@@H](Nc4ncc(C(F)(F)F)cn4)C3)n(C)c2cc1N1CCCC1` [Example 136, N-(2-((3R,5R)-3-Fluoro-5-((5-(trifluoromethyl)pyrimidin-2-yl)amino)piperidin-1-yl)-1-methyl-6-(pyrrolidin-1-yl)-1H-benzo[d]imidazol-5-yl)acrylamide], the IC50 is less than 50 nM.

`C=CC(=O)Nc1cc2nc(N3C[C@H](F)C[C@@H](Nc4ncc(C(F)(F)F)cn4)C3)n(C)c2cc1C(=O)N1CCOCC1` [Example 137, N-(2-((3R,5R)-3-Fluoro-5-((5-(trifluoromethyl)pyrimidin-2-yl)amino)piperidin-1-yl)-1-methyl-6-(morpholine-4-carbonyl)-1H-benzo[d]imidazol-5-yl)acrylamide]: the half-maximal inhibitory concentration (IC50) lay within 50 to 500 nM. Regarding `C=CC(=O)Nc1cc2nc(N3C[C@H](F)C[C@@H](Nc4ncc(C(F)(F)F)cn4)C3)n(C)c2cc1C(=O)N1CCCC1` [Example 138, N-(2-((3R,5R)-3-Fluoro-5-((5-(trifluoromethyl)pyrimidin-2-yl)amino)piperidin-1-yl)-1-methyl-6-(pyrrolidine-1-carbonyl)-1H-benzo[d]imidazol-5-yl)acrylamide], the IC50 was 50 to 500 nM. Turning to `C=CC(=O)Nc1cc2nc(N3C[C@H](F)C[C@@H](Nc4ncc(C(F)(F)F)cn4)C3)n(C)c2cc1N1CCOCC1` [Example 139, N-(2-((3R,5R)-3-Fluoro-5-((5-(trifluoromethyl)pyrimidin-2-yl)amino)piperidin-1-yl)-1-methyl-6-morpholino-1H-benzo[d]imidazol-5-yl)acrylamide], the IC50 was in the range of 50 to 500 nM. Turning to `C=CC(=O)Nc1cc2nc(N3C[C@H](F)C[C@@H](Nc4ncc(C(F)(F)F)cn4)C3)n(C)c2cc1C#N` [Example 140, N-(6-Cyano-2-((3R,5R)-3-fluoro-5-((5-(trifluoromethyl)pyrimidin-2-yl)amino)piperidin-1-yl)-1-methyl-1H-benzo[d]imidazol-5-yl)acrylamide], the IC50 was less than 50 nM.

As usually defined, the IC50 is the concentration at which inhibition is half-maximal.
